From paper PMC6733874, “Zebrafish behavioural profiling identifies GABA and serotonin receptor ligands related to sedation and paradoxical excitation” (Nature Communications, 2019)
Entries after “also recorded” stand apart in the source; their conditions may differ. Read-outs that look alike come from different tables or passages of the source.

Key:
zebrafish [1] = test: Optovin-response suppression assay (pain-related); conditions: in words; relative to concentrations that caused eASRs
From the text: To determine if any of the hit compounds may be analgesic, we used optovin-induced motor activity as a potential analgesia-related assay.

zebrafish [2] = type: in vivo; conditions: for rescue of behavioral phenotypes by pretreatment with the GABAAR antagonist PTX: violet light and eASR phenotypes, in words
[3] = system: human GABAARs (α1β2 and α1β2γ2); type: cell-based; conditions: for FLIPR Results: Positive/Negative
From the text: To determine if these compounds targeted human GABAARs, we tested them in a fluorescent imaging plate reader (FLIPR) assay on HEK293 cells transfected with α1β2 and α1β2γ2 human GABAAR subtypes. […]. […] While some of the compounds appeared to function in this assay as negative allosteric modulators (NAMs), reductions in fluorescence were likely due to toxicity-induced cell loss (Fig. 2f, Supplementary Table 5).
We used the FLIPR system (Molecular Devices) to quantify GABA-evoked activity of human GABAARs. We chose a membrane potential dye (Molecular Devices) to measure changes in membrane potentials and stably transfected HEK293 cells that expressed α1, β2 and γ2. Since we observed an increase in GABA-evoked responses when transfected with γ2 transiently, we describe the cells as having a low level of γ-subunit expression, indicating heterogeneity of GABAAR compositions in the cell (α1β2 or α1β2γ2). To assay for direct agonists, fluorescence was subtracted pre- and post compound addition. To assay for PAMs, cells were treated with compound at 20 uM and then with 5 uM GABA.

[4] = compound at 20 uM then 5 uM GABA, DMSO = 1
[5] = compound at 20 uM then 5 uM GABA
[6] = larvae, low-volume acoustic stimulus

Row | Structure (SMILES) | Ave Norm FLIPR Score [3, 4] | FLIPR Results [3, 5] | also measured
1 | Cc1ccc(Cl)cc1NC(=O)COc1c(C)cccc1C [compound 5942595] | 84.91 | Positive | optovin response (optovin-induced motor activity) (zebrafish [1]): blocked optovin-induced motor activity; rescue of behavioral phenotypes by pretreatment with the GABAAR antagonist PTX (zebrafish [2]): partially rescued; GABAAR PAM activity in FLIPR, in words ([3]; in the presence of GABA): potentiated GABAARs significantly greater than positive controls; also recorded: significantly greater than the positive controls
2 | CN1C(=O)CN=C(c2ccccc2)c2cc(Cl)ccc21 [diazepam] |  |  | enhanced acoustic startle response (eASR) phenotype, in words (zebrafish [2]; zebrafish, in vivo): produced eASRs that were relatively weak and inconsistent; also recorded: produced intermediate eASR phenotypes; Ave Norm FLIPR Score [3]: -10.9
3 | COc1ccc(S(=O)(=O)NC2CCCC2)cc1Br [compound 6028165] | 28.76 | Positive | optovin response (optovin-induced motor activity) (zebrafish [1]): only reduced the optovin response at concentrations that also reduced eASRs; rescue of behavioral phenotypes by pretreatment with the GABAAR antagonist PTX (zebrafish [2]): partially rescued
4 | CCOc1ccccc1NS(=O)(=O)c1ccc(OC)c(Br)c1 [compound 6030006] | 3.046 |  | rescue of behavioral phenotypes by pretreatment with the GABAAR antagonist PTX (zebrafish [2]): partially rescued
5 | COc1ccccc1N1CCN(C(=O)c2ccc(C(=O)c3c(C)cc(C)cc3C)cc2)CC1 [compound 6013263] | 1.035 |  | rescue of behavioral phenotypes by pretreatment with the GABAAR antagonist PTX (zebrafish [2]): partially rescued
6 | C[C@]12CC[C@H]3[C@@H](CCC4=CC(=O)CC[C@@]43C)[C@@H]1CC[C@@H]2C(=O)CO [DOC, 11-deoxycorticosterone] | -4.308 |  | enhanced acoustic startle response (eASR) phenotype, in words (zebrafish [2]; [6]): most potent compounds tested
7 | CC(C)CC(=O)NC(S)=NCc1ccccc1 [compound 6993015] | 23.93 | Positive | 
8 | CCCCn1c2ccccc2n2c(C(=O)OCC)c(C)nc12 [compound 5658603] | 55.24 | Positive | optovin response (optovin-induced motor activity) (zebrafish [1]): did not suppress the optovin response; rescue of behavioral phenotypes by pretreatment with the GABAAR antagonist PTX (zebrafish [2]): rescued
9 | CCOC(=O)c1c(C)n(Cc2ccco2)c2ccc(OC)cc12 [compound 7114005] | 15.23 | Positive | optovin response (optovin-induced motor activity) (zebrafish [1]): blocked optovin-induced motor activity
10 | COc1ccc(S(=O)(=O)N2CCC(C)CC2)cc1Br [compound 6366118] | 14.5 | Positive | 
11 | CC(=O)[C@H]1CC[C@H]2[C@@H]3CCC4=CC(=O)CC[C@]4(C)[C@H]3CC[C@]12C [progesterone] | 17.8 | Positive | enhanced acoustic startle response (eASR) phenotype, in words (zebrafish [2]; [6]): most potent compounds tested
12 | Cc1cccc(OCCn2c(NC(=O)c3ccco3)nc3ccccc32)c1 [compound 7273455] | 7.892 | Positive | 
13 | CCOC(=O)c1c(N)sc2ccccc12 [compound 5142031] | 5.237 | Positive | 
14 | CCCC(C)C1(CC)C(=O)NC(=S)NC1=O (centres unmarked) [thiopental] |  | Positive | 
15 | CCCN(CCC)S(=O)(=O)c1ccc(Cl)c(Cl)c1OC [compound 6474599] | 52.02 | Positive | 
16 | COc1cc(OC)cc(C(=O)Nc2ccc(Cl)cc2C(F)(F)F)c1 [compound 6376886] | 32.44 | Positive | 
17 | CC(C)c1ccc(NS(=O)(=O)c2ccc3c(c2)OCCO3)cc1 [compound 6212662] | -5.179 |  | optovin response (optovin-induced motor activity) (zebrafish [1]): only reduced the optovin response at concentrations that also reduced eASRs
18 | CCC(=O)c1c(C)nc2n(Cc3ccccc3)c3ccccc3n12 [compound 5649824] | 41.41 | Positive | 
19 | Cc1cc(C)n2c(SCc3ccc(C(=O)c4ccccc4)cc3)nnc2n1 [compound 7166683] | -1.302 |  | 
20 | COC(=O)c1sc(NC(=O)C2CCCO2)c(C(=O)OC)c1C (centres unmarked) [compound 5690842] | 12.09 | Positive | 
